Results published in patent US20200181104A1, “SSAO INHIBITORS AND USES THEREOF” (METACRINE, INC., priority 2018, published 2020).

target: T1, Recombinant Human SSAO/VAP-1/AOC3 (Homo sapiens, UniProt Q16853); experiment: Human Semicarbazide-Sensitive Amine Oxidase (SSAO) Assay; format: biochemical; details: recombinant enzyme, 30 minutes preincubation at 37° C., benzylamine substrate, Amplex Ultra Red/HRP fluorescence
T1 construct: purchased R&D systems 3957-AO
T1 sequence (Q16853 1-763): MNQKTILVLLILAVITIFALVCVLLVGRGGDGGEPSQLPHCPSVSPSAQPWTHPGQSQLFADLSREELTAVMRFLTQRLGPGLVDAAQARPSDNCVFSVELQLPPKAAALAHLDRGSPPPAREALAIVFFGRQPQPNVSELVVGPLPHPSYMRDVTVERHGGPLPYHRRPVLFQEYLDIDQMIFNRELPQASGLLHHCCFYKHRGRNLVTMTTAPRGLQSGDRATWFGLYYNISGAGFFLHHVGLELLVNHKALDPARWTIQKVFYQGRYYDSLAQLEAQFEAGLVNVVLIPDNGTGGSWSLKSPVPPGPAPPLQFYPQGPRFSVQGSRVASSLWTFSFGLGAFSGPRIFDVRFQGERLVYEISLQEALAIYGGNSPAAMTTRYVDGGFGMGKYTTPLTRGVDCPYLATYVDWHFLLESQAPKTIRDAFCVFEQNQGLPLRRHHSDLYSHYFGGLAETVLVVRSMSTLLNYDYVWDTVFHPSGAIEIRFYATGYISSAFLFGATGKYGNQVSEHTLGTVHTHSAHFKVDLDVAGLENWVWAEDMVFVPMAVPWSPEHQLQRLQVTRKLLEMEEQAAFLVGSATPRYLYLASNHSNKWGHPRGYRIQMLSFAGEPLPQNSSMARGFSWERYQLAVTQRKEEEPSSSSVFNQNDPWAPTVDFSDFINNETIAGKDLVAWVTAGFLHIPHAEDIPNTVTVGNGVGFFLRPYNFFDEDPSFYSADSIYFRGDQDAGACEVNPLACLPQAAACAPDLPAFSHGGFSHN
Description: Compounds were dissolved in DMSO to provide a Concentration Response Curve (CRC; at 500 times the final concentration) over a range of 6-10 dilutions.
Recombinant Human SSAO/VAP-1/AOC3 (R&D systems; Catalog #3957-AO) was used to screen compound potency in vitro, according to previously described methods (J Pharmacol Exp Ther. 2013 November; 347(2):365-74). SSAO enzyme was suspended in 50 mM HEPES buffer to a working concentration of 2.5 μg/ml and 40 μL of this enzyme mixture was then added to each well of a F16 Black Maxisorp 96 well Plate (Nunc, Catalog #475515). Ten microliters of each test compound (at 5 times the final concentration) were added to each well, resulting in a final well volume of 50 μL of the enzyme and inhibitor mixture. The compounds were preincubated with the enzyme for 30 minutes at 37° C., prior to the addition of a 40 μL volume of Amplex Ultra Red (125 uM AUR; Molecular Probes, Catalog # A36006)/Horseradish peroxidase (2.5 U/ml HRP; Sigma-Aldrich Catalog # P8375) oxidase detection reagent containing cytochrome C ([…]; Sigma-Aldrich Catalog # C7752). Cytochrome C was included in the AUR/HRP detection mixture to reduce the background fluorescence that can occur via the spontaneous redox reaction between AUR and HRP. The SSAO enzyme reaction was then initiated by adding 10 μL of the SSAO substrate, benzylamine (Sigma-Aldrich Catalog # B5136), and SSAO activity was measured in kinetic mode over a 30-120 minute sampling period (excit. 544 nm; emit 590 nm; cut off 570 nm; medium gain) to obtain IC50 values for enzyme activity in each treatment well.

Row | SMILES | IC50
1 | CNC(=O)CCNC(=O)C12CCC(c3ccc(OC/C(=C/F)CN)cc3)(CC1)CC2 [Compound 2.17, (E)-4-(4-((2-(amino-methyl)-3-fluoroallyl)oxy)phenyl)-N-(3-(methylamino)-3-oxopropyl)bicyclo[2.2.2] octane-1-carboxamide] | ≤ 10 nM
2 | CC(NC(=O)C12CCC(c3ccc(OC/C(=C/F)CN)cc3)(CC1)CC2)C1CCOCC1 (stereo not drawn) [Compound 2.19, (E)-4-(4-((2-(amino-methyl)-3-fluoroallyl)oxy)phenyl)-N-(1-(tetrahydro-2H-pyran-4-yl)ethyl)bicyclo[2.2.2] octane-1-carboxamide] | ≤ 10 nM
3 | NC/C(=C\F)COc1ccc(C23CCC(C(=O)NCC4CCOCC4)(CC2)CC3)cc1 [Compound 2.20] | ≤ 10 nM
4 | NC/C(=C\F)COc1ccc(C23CCC(C(=O)NCCCCl)(CC2)CC3)cc1 [Compound 2.26, (E)-4-(4-((2-(aminomethyl)-3-fluoroallyl)oxy)phenyl)-N-(3-chloropropyl)bicyclo[2.2.2] octane-1-carboxamide] | ≤ 10 nM
5 | C[C@H](NC(=O)C12CCC(c3ccc(OC/C(=C/F)CN)cc3)(CC1)CC2)C1CCOCC1 [Compound 2.27, (S,E)-4-(4-((2-(aminomethyl)-3-fluoroallyl)oxy)phenyl)-N-(1-(tetrahydro-2H-pyran-4-yl)ethyl)bicyclo[2.2.2]octane-1-carboxamide] | ≤ 10 nM
6 | C[C@@H](NC(=O)C12CCC(c3ccc(OC/C(=C/F)CN)cc3)(CC1)CC2)C1CCOCC1 [Compound 2.28, (R,E)-4-(4-((2-(aminomethyl)-3-fluoroallyl)oxy)phenyl)-N-(1-(tetrahydro-2H-pyran-4-yl)ethyl)bicyclo[2.2.2]octane-1-carboxamide] | ≤ 10 nM
7 | COCCOCCNC(=O)C12CCC(c3ccc(OC/C(=C/F)CN)cc3)(CC1)CC2 [Compound 2.32, (E)-4-(4-((2-(aminomethyl)-3-fluoroallyl)oxy)phenyl)-N-(2-(2-methoxyethoxy)ethyl) bicyclo[2.2.2]octane-1-carboxamide] | ≤ 10 nM
8 | NC/C(=C\F)COc1ccc(C23CCC(C(=O)NCC4(F)CCOCC4)(CC2)CC3)cc1 [Compound 2.33, (E)-4-(4-((2-(aminomethyl)-3-fluoroallyl)oxy)phenyl)-N-((4-fluorotetrahydro-2H-pyran-4-yl)methyl)bicyclo[2.2.2]octane-1-carboxamide] | ≤ 10 nM
9 | CC(C)(CO)NC(=O)C12CCC(c3ccc(OC/C(=C/F)CN)cc3)(CC1)CC2 [Compound 2.34, (E)-4-(4-((2-(aminomethyl)-3-fluoroallyl)oxy)phenyl)-N-(1-hydroxy-2-methylpropan-2-yl)bicyclo[2.2.2]octane-1-carboxamide] | ≤ 10 nM
10 | NC/C(=C\F)COc1ccc(C23CCC(C(=O)NCC4(O)CCOCC4)(CC2)CC3)cc1 [Compound 2.35, (E)-4-(4-((2-(aminomethyl)-3-fluoroallyl)oxy)phenyl)-N-((4-hydroxytetrahydro-2H-pyran-4-yl)methyl)bicyclo[2.2.2]octane-1-carboxamide] | ≤ 10 nM
11 | CC1(CNC(=O)C23CCC(c4ccc(OC/C(=C/F)CN)cc4)(CC2)CC3)CCOCC1 [Compound 2.36, (E)-4-(4-((2-(aminomethyl)-3-fluoroallyl)oxy)phenyl)-N-((4-methyltetrahydro-2H-pyran-4-yl)methyl)bicyclo[2.2.2]octane-1-carboxamide] | ≤ 10 nM
12 | CN(C)C(=O)CCNC(=O)C12CCC(c3ccc(OC/C(=C/F)CN)cc3)(CC1)CC2 [Compound 2.37, (E)-4-(4-((2-(aminomethyl)-3-fluoroallyl)oxy)phenyl)-N-(3-(dimethylamino)-3-oxopropyl)bicyclo[2.2.2]octane-1-carboxamide] | ≤ 10 nM
13 | CC(C)N(CCO)C(=O)C12CCC(c3ccc(OC/C(=C/F)CN)cc3)(CC1)CC2 [Compound 2.38, (E)-4-(4-((2-(aminomethyl)-3-fluoroallyl)oxy)phenyl)-N-(2-hydroxyethyl)-N-isopropylbicyclo[2.2.2]octane-1-carboxamide] | ≤ 10 nM

Further lines, results first:

Row | IC50 | SMILES
14 | ≤ 10 nM | CN(C(=O)C12CCC(c3ccc(OC/C(=C/F)CN)cc3)(CC1)CC2)C1CCOCC1 [Compound 2.16, (E)-4-(4-((2-(amino-methyl)-3-fluoroallyl)oxy)phenyl)-N-methyl-N-(tetrahydro-2H-pyran-4-yl)bicyclo[2.2.2] octane-1-carboxamide]
15 | ≤ 10 nM | CC1(NC(=O)C23CCC(c4ccc(OC/C(=C/F)CN)cc4)(CC2)CC3)CCOCC1 [Compound 2.18, (E)-4-(4-((2-(amino-methyl)-3-fluoroallyl)oxy)phenyl)-N-(4-methyltetrahydro-2H-pyran-4-yl)bicyclo [2.2.2]octane-1-carboxamide]
16 | ≤ 10 nM | NC/C(=C\F)COc1ccc(C23CCC(C(=O)NC4CCOC4)(CC2)CC3)cc1 (stereo not drawn) [Compound 2.21, (E)-4-(4-((2-(amino-methyl)-3-fluoroallyl)oxy)phenyl)-N-(tetrahydrofuran-3-yl)bicyclo[2.2.2]octane-1-carboxamide]
17 | ≤ 10 nM | C[C@H]1COCCN1C(=O)C12CCC(c3ccc(OC/C(=C/F)CN)cc3)(CC1)CC2 [Compound 2.22, (S,E)-(4-(4-((2-(aminomethyl)-3-fluoroallyl)oxy)phenyl)bicyclo[2.2.2]octan-1-yl)(3-methylmorpholino) methanone]
18 | ≤ 10 nM | CC(C)NC(=O)C12CCC(c3ccc(OC/C(=C/F)CN)cc3)(CC1)CC2 [Compound 2.23, (E)-4-(4-((2-(aminomethyl)-3-fluoroallyl)oxy)phenyl)-N-isopropylbicyclo [2.2.2]octane-1-carboxamide]
19 | ≤ 10 nM | NC/C(=C\F)COc1ccc(C23CCC(C(=O)N4CCCCC4)(CC2)CC3)cc1 [Compound 2.24, (E)-(4-(4-((2-(amino-methyl)-3-fluoroallyl)oxy)phenyl)bicyclo [2.2.2]octan-1-yl)(piperidin-1-yl)methanone]
20 | ≤ 10 nM | NC/C(=C\F)COc1ccc(C23CCC(C(=O)N4CCCC4)(CC2)CC3)cc1 [Compound 2.25, (E)-(4-(4-((2-(aminomethyl)-3-fluoroallyl)oxy)phenyl)bicyclo [2.2.2]octan-1-yl)(pyrrolidin-1-yl)methanone]
21 | ≤ 10 nM | NC/C(=C\F)COc1ccc(C23CCC(C(=O)N4CC(O)C4)(CC2)CC3)cc1 [Compound 2.29, (E)-(4-(4-((2-(aminomethyl)-3-fluoroallyl)oxy)phenyl)bicyclo [2.2.2]octan-1-yl)(3-hydroxyazetidin-1-yl)methanone]
22 | ≤ 10 nM | NC/C(=C\F)COc1ccc(C23CCC(C(=O)N4CCN(CC(F)(F)F)CC4)(CC2)CC3)cc1 [Compound 2.30, (E)-(4-(4-((2-(aminomethyl)-3-fluoroallyl)oxy)phenyl)bicyclo [2.2.2]octan-1-yl)(4-(2,2,2-trifluoroethyl)piperazin-1-yl)methanone]
23 | ≤ 10 nM | CC(=O)N1CCN(C(=O)C23CCC(c4ccc(OC/C(=C/F)CN)cc4)(CC2)CC3)CC1 [Compound 2.31, (E)-1-(4-(4-(4-((2-(aminomethyl)-3-fluoroallyl)oxy)phenyl)bicyclo [2.2.2]octane-1-carbonyl)piperazin-1-yl)ethanone]
24 | ≤ 10 nM | COC1CN(C(=O)C23CCC(c4ccc(OC/C(=C/F)CN)cc4)(CC2)CC3)C1 [Compound 2.39, (E)-(4-(4-((2-(aminomethyl)-3-fluoroallyl)oxy)phenyl)bicyclo [2.2.2]octan-1-yl)(3-methoxyazetidin-1-yl)methanone]
